Results on 49 compounds are retold here after patent publication US12414952B2 (Merck Sharp & Dohme LLC, priority 2018, dated 2025).

Sequence of human A2a adenosine receptor (P29274 whole entry): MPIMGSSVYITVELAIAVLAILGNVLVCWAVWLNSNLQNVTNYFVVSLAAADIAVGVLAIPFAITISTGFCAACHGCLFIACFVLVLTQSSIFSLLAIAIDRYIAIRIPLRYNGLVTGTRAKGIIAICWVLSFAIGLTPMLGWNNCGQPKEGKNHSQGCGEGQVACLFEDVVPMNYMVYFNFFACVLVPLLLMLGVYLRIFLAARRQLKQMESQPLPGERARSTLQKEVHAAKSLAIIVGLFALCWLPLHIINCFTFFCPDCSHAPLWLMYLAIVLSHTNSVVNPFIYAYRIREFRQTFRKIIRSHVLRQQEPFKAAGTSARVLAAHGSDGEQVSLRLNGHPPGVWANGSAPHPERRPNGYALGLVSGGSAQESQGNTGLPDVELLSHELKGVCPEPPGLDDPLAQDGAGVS

For this experiment, the target named is human A2a adenosine receptor (Homo sapiens (Human), UniProt P29274). In words: A2a binding affinity using radioligand binding, Method (A). As to conditions: Method (A): [3H]SCH58261 filtration binding. The text has this:
The A2a receptor affinity binding assay measured the amount of binding of a tritiated ligand with high affinity for the A2a adenosine receptor to membranes made from HEK293 or CHO cells recombinantly expressing the human A2a adenosine receptor, in the presence of varying concentrations of a compound of the invention. The data were generated using either filtration binding or a homogenous scintillation proximity assay (SPA).
Method (A): Measurement of A2a Binding Affinity Using Radioligand Binding
148 μL (5 μg/mL) membranes (Perkin Elmer, Cat. No. RBHA2aM400UA) and 2 μL compounds of the invention to be tested (test compound) were transferred to individual wells of a 96-well polypropylene assay plate and incubated for 15 to 30 min at room temperature. [^3H] SCH58261 ((7-(2-phenylethyl)-5-amino-2-(2-furyl)-pyrazolo-[4,3-e]-1,2,4-triazolo[1,5-c]pyrimidine)) was diluted in assay buffer (50 mM Tris pH 7.4, 10 mM MgCl2, 0.005% Tween20) to a concentration of 4 nM and 50 μL transferred to each well of the assay plate. […] The assay plate was incubated at room temperature for 60 min with agitation. […] Filtering was achieved by aspirating the contents of the assay plate for 5 sec, then washing and aspirating the contents three times with ice-cooled wash buffer (50 mM Tris-HCl pH 7.4, 150 mM NaCl) and allowing the vacuum manifold to dry the plate for […]. The filter plate was incubated for at least 1 h at 55° C. and allowed to dry. The bottom of the filter plate was sealed with backing tape. […] The plate was incubated for at least 20 min, and then the amount of radioactivity remaining in each well was determined using a TopCount® (Perkin Elmer) scintillation counter. After normalization to total and non-specific binding, the percent effect at each compound concentration was calculated. The plot of percent effect versus the log of compound concentration was analyzed electronically using a 4-parameter logistic fit based on the Levenberg-Marquardt algorithm to generate IC50 values.
A word on the IC50: it is the concentration that inhibits the measured activity by half. `Nc1nc(-c2ncco2)cn2nc(Cc3ccccc3)nc12` [Example 1.2, 2-benzyl-6-(oxazol-2-yl)-[1,2,4]triazolo[1,5-a]pyrazin-8-amine] yielded a 50% inhibitory concentration (IC50) of 3.1 nM. Take `Cc1c(-c2nccs2)nc(N)c2nc(Cc3ccccc3)nn12` [Example 1.3]: the half-inhibitory concentration (IC50) turned out to be 1.3 nM. In the case of `Cc1c(-c2ncccn2)nc(N)c2nc(Cc3ccccc3)nn12` [Example 1.4] it was 3.6 nM; in that of `Cc1nc2c(N)nc(-c3ncco3)cn2n1` [Example 1.5], 909 nM; in that of `Cc1nc2c(o1)CN(CCc1nc3c(C)c(-c4ncco4)nc(N)n3n1)C2` [Example 1.7], 7.4 nM. In the case of `Cc1nc2cc(-c3ncco3)nc(N)n2n1` [Example 1.9] it was 534 nM; in that of `Nc1nc(-c2ccc(F)cc2)cn2nc(Cc3ccccc3)nc12` [Example 2.3, 2-benzyl-6-(4-fluorophenyl)-[1,2,4]triazolo[1,5-a]pyrazin-8-amine], 2.5 nM; in that of `Nc1nc(-c2ccccc2)cn2nc(Cc3ccccc3)nc12` [Example 2.4], 1.6 nM. Compound `Cc1nc2c(N)nc(-c3ccccc3)cn2n1` [Example 2.5] registered an IC50 of 112 nM. Consider `Cc1nc2c(N)nc(-c3ccc(F)cc3)cn2n1` [Example 2.6], for which the IC50 was found to be 523 nM. This IC50 lies about 4.7-fold higher than the previous one. In the case of `Nc1nc(-c2cc(F)ccc2F)cn2nc(Cc3ccccc3)nc12` [Example 2.7] it was 2.2 nM; in that of `Cc1c(-c2ccc(F)cc2)nc(N)n2nc(CCN3CCn4c(cnc4C(C)C)C3)nc12` [Example 2.17], 124 nM.

`Cc1nc2c(o1)CN(CCc1nc3c(C)c(-c4cnco4)nc(N)n3n1)C2` [Example 2.25] showed an IC50 of 26.7 nM. In the case of `Cc1c(-c2cccc(F)c2)nc(N)c2nc(Cc3ccccc3)nn12` [Example 3.3, 2-benzyl-6-(3-fluorophenyl)-5-methyl-[1,2,4]triazolo[1,5-a]pyrazin-8-amine] it was 1.1 nM. Regarding `Cc1c(-c2cc(F)ccc2F)nc(N)c2nc(Cc3ccccc3)nn12` [Example 3.4], the IC50 stood at 1.1 nM.

On to `Cc1c(-c2ccccc2)nc(N)c2nc(Cc3ccccc3)nn12` [Example 3.5], for which the IC50 amounted to 2.2 nM.

`Cc1c(-c2ccccc2F)nc(N)c2nc(Cc3ccccc3)nn12` [Example 3.6] displayed a half-inhibitory concentration (IC50) of 6.4 nM. As for `COc1ccc(-c2nc(N)c3nc(Cc4ccccc4)nn3c2C)cc1Cl` [Example 3.7], the IC50 was 11 nM. Compound `COc1ccc(-c2nc(N)c3nc(Cc4ccccc4)nn3c2C)cc1F` [Example 3.8] had an IC50 of 20.6 nM. Compound `Cc1c(-c2cncc(F)c2)nc(N)c2nc(Cc3ccccc3)nn12` [Example 3.9] showed an IC50 of 24.5 nM. The IC50 values of the last two compounds are within 1.5-fold of each other. Under `Cc1c(-c2ccc(F)c(F)c2)nc(N)c2nc(Cc3ccccc3)nn12` [Example 3.10] stands 27.9 nM; under `COc1cccc(-c2nc(N)c3nc(Cc4ccccc4)nn3c2C)c1F` [Example 3.11], 28.5 nM; under `Cc1c(-c2ccc(Cl)c(Cl)c2)nc(N)c2nc(Cc3ccccc3)nn12` [Example 3.12], 38 nM. In turn, `COc1ncc(-c2nc(N)c3nc(Cc4ccccc4)nn3c2C)cc1F` [Example 3.13] registered an IC50 of 40 nM. Under `COc1ccc(-c2nc(N)c3nc(Cc4ccccc4)nn3c2C)c(F)c1` [Example 3.14] stands 40.6 nM; under `Cc1cc(-c2nc(N)c3nc(Cc4ccccc4)nn3c2C)ccn1` [Example 3.15], 54.8 nM; under `Cc1c(-c2ccc(Cl)c(F)c2)nc(N)c2nc(Cc3ccccc3)nn12` [Example 3.16], 73.9 nM.

For `Cc1c(-c2ccc(F)cc2F)nc(N)c2nc(Cc3ccccc3)nn12` [Example 3.17], the IC50 is 82.2 nM. For the compound `Cc1c(-c2ccc(Cl)cc2)nc(N)c2nc(Cc3ccccc3)nn12` [Example 3.18], the IC50 came to 84.4 nM. Turning to `Cc1c(-c2ccc(OC(F)F)cc2)nc(N)c2nc(Cc3ccccc3)nn12` [Example 3.19], the IC50 stood at 121 nM.

The compound `Cc1c(-c2cccc(C(F)(F)F)n2)nc(N)c2nc(Cc3ccccc3)nn12` [Example 3.20] showed an IC50 of 157 nM. Regarding `Cc1c(-c2ccc(Cl)cc2F)nc(N)c2nc(Cc3ccccc3)nn12` [Example 3.21], the IC50 was 168 nM. As for `Cc1c(-c2cnn(C(F)(F)F)c2)nc(N)c2nc(Cc3ccccc3)nn12` [Example 3.44], the IC50 amounted to 490 nM.

Compound `Cc1c(-c2cc(C(F)(F)F)nn2C)nc(N)c2nc(Cc3ccccc3)nn12` [Example 3.45] yielded an IC50 of 17.8 nM. In the case of `Cc1c(-c2ncco2)nc(N)c2nc(Cc3ccccc3C(F)(F)F)nn12` [Example 7.3, 5-methyl-6-(oxazol-2-yl)-2-(2-(trifluoromethyl)benzyl)-[1,2,4]triazolo[1,5-a]pyrazin-8-amine] it was 0.5 nM; in that of `Cc1c(-c2cc(F)ccc2F)nc(N)c2nc(Cc3ccc(C(F)(F)F)cc3)nn12` [Example 7.4, 6-(2,5-difluorophenyl)-5-methyl-2-(4-(trifluoromethyl)benzyl)-[1,2,4]triazolo[1,5-a]pyrazin-8-amine], 15.3 nM; in that of `Nc1nc(-c2ccccc2)cc2nc(CCO)nn12` [Example 14.3, 2-(5-amino-7-phenyl-[1,2,4]triazolo[1,5-c]pyrimidin-2-yl)ethan-1-ol], 493 nM. Under `Cc1c(-c2ncco2)nc(N)n2nc(CCN3CCc4c(ncn4C4CCCC4)C3)nc12` [Example 17.18, 2-(2-(1-cyclopentyl-1,4,6,7-tetrahydro-5H-imidazo[4,5-c]pyridin-5-yl)ethyl)-8-methyl-7-(oxazol-2-yl)-[1,2,4]triazolo[1,5-c]pyrimidin-5-amine] stands 0.6 nM; under `Cc1c(-c2ncco2)nc(N)n2nc(CCN3CCc4ncn(C5CCCC5)c4C3)nc12` [Example 17.19, 2-(2-(3-cyclopentyl-3,4,6,7-tetrahydro-5H-imidazo[4,5-c]pyridin-5-yl)ethyl)-8-methyl-7-(oxazol-2-yl)-[1,2,4]triazolo[1,5-c]pyrimidin-5-amine], 3 nM. For `Nc1nc(-c2ncco2)cc2nc(CCN3CC(F)(F)C3)nn12` [Example 17.20, 2-(2-(3,3-difluoroazetidin-1-yl)ethyl)-7-(oxazol-2-yl)-[1,2,4]triazolo[1,5-c]pyrimidin-5-amine], the IC50 was 90.9 nM.

`Nc1nc(-c2ncco2)cc2nc(CCN3CCc4[nH]ncc4C3)nn12` [Example 17.21, 7-(oxazol-2-yl)-2-(2-(1,4,6,7-tetrahydro-5H-pyrazolo[4,3-c]pyridin-5-yl)ethyl)-[1,2,4]triazolo[1,5-c]pyrimidin-5-amine] registered an IC50 of 450 nM. Under `Cn1nc(C(F)(F)F)c2c1CCN(CCc1nc3cc(-c4ncco4)nc(N)n3n1)C2` [Example 17.22, 2-(2-(1-methyl-3-(trifluoromethyl)-1,4,6,7-tetrahydro-5H-pyrazolo[4,3-c]pyridin-5-yl)ethyl)-7-(oxazol-2-yl)-[1,2,4]triazolo[1,5-c]pyrimidin-5-amine] stands 78.9 nM. In the case of `Nc1nc(-c2ncco2)cc2nc(CCN3CCN(CC4CC4)C(=O)C3)nn12` [Example 17.23, 4-(2-(5-amino-7-(oxazol-2-yl)-[1,2,4]triazolo[1,5-c]pyrimidin-2-yl)ethyl)-1-(cyclopropylmethyl)piperazin-2-one], the IC50 was 122 nM. Under `Cc1cc2n(n1)CCN(CCc1nc3cc(-c4ncco4)nc(N)n3n1)C2` [Example 17.24, 2-(2-(2-methyl-6,7-dihydropyrazolo[1,5-a]pyrazin-5(4H)-yl)ethyl)-7-(oxazol-2-yl)-[1,2,4]triazolo[1,5-c]pyrimidin-5-amine] stands 319 nM. In the case of `Nc1nc(-c2ncco2)cc2nc(CCN3CCc4nccnc4C3)nn12` [Example 17.25, 2-(2-(7,8-dihydropyrido[3,4-b]pyrazin-6(5H)-yl)ethyl)-7-(oxazol-2-yl)-[1,2,4]triazolo[1,5-c]pyrimidin-5-amine] it was 402 nM. With `CC(C)c1ncc2n1CCN(CCc1nc3c(N)nc(-c4ncco4)cn3n1)C2` [Example 17.26, 2-(2-(3-isopropyl-5,6-dihydroimidazo[1,5-a]pyrazin-7(8H)-yl)ethyl)-6-(oxazol-2-yl)-[1,2,4]triazolo[1,5-a]pyrazin-8-amine], the 50% inhibitory concentration (IC50) is 629 nM.

`Nc1nc(-c2ccccc2)cc2nc(CCN3CCn4c(cnc4C4CCC4)C3)nn12` [Example 17.27, 2-(2-(3-cyclobutyl-5,6-dihydroimidazo[1,5-a]pyrazin-7(8H)-yl)ethyl)-7-phenyl-[1,2,4]triazolo[1,5-c]pyrimidin-5-amine] yielded an IC50 of 39.9 nM. Compound `Cc1c(-c2ncco2)nc(N)n2nc(Cc3ccccc3)nc12` [Example 19.3, 2-benzyl-8-methyl-7-(oxazol-2-yl)-[1,2,4]triazolo[1,5-c]pyrimidin-5-amine] had an IC50 of 0.5 nM. Turning to `Cc1c(-c2ncco2)nc(N)c2nc(Cc3ccccc3)nn12` [Example 20.2, 2-benzyl-5-methyl-6-(oxazol-2-yl)-[1,2,4]triazolo[1,5-a]pyrazin-8-amine], the IC50 was 0.5 nM. This lies in the sub-nanomolar range.
